US8309068B2, “Isolated polypeptides and methods of improving muscle strength” (Myostin Therapeutics Pty Ltd., priority 2006, dated 2012)

Legend:
primary myoblasts = assay: Myoblast chemotaxis assay, effect of recombinant myostatin; format: cell-based; details: recombinant myostatin at 2.5 μg/ml in control (CEE) medium; myoblasts from old (2 year old) mice
Experimental: Primary myoblasts were cultured from the hind limb muscle of young (4 to 6 week old) or old (24 month old) mice, according to the published protocols (Allen et al., 1997; Partridge, 1997). Briefly, muscles were minced, and digested in 0.2% collagenase type 1A for 90 min. Cultures were enriched for myoblasts by pre-plating on uncoated plates for 3 hours. Myoblast cultures were maintained in growth media (GM) supplemented with 20% fetal calf serum (FCS), 10% HS and 1% CEE on 10% Matrigel coated plates, at 37° C./5% CO2. The extent of culture purity was assessed by flow cytometry analysis of MyoD expression after 48 hours in culture. Cells were harvested using trypsin, suspended at a concentration of 10^6 cells/200 μl and fixed overnight in 5 ml 70% ethanol at −20° C. Staining was performed for 30 min at room temperature using rabbit polyclonal anti-MyoD, 1:200 (Santa Cruz), followed by Alexa fluor 488 anti-rabbit conjugate, 1:500 (Molecular Probes). Analysis was carried out in duplicate with 10^4 cell events collected in each assay. Debris was excluded by gating on forward and side scatter profiles. Cells were analyzed by FACScan (Becton Dickinson). […]
For the chemotaxis assay of myoblasts, a first assay was carried out on myoblasts from 2 year old mice as follows. […] Migrated cells were counted on four representative fields per membrane and the average number plotted. […]

C2C12 myoblasts = assay: C2C12 myoblast proliferation assay (methylene blue endpoint); format: cell-based, murine; details: recombinant myostatin at 2.25 μg/ml in control medium
Experimental: A polypeptide of the invention, or a fragment, variant or derivative thereof has the biological function of antagonising myostatin activity. To determine whether a polypeptide of the invention, or a fragment, variant or derivative thereof, is able to antagonise myostatin activity, such activity can be tested by growing myoblasts in the presence or absence (control) of a candidate polypeptide of the invention. […]
The myoblast proliferation assay was carried out in uncoated 96-well microtitre plates. C2C12 cultures were seeded at 1000 cells/well. Following a 16-hour attachment period, test media containing either recombinant wild type myostatin or different myostatin antagonists were added and cells were incubated for a further 48 or 72 hour period. For competition assay, wild type myostatin was competed with different concentrations of myostatin antagonists prior to the addition into the media. After the incubation period, proliferation was assessed using methylene blue photometric endpoint assay as previously described (Thomas et al, 2000).

p-FoxO1 = assay: In vitro cancer cachexia trial: p-FoxO1 Western blot in C2C12 myotubes; format: cell-based, murine; details: 6 μg/mL recombinant Myostatin; 24 hour treatment; C2C12 myotubes
Experimental: C2C12 cells were differentiated for 72 hours in differentiation media (DMEM+2% HS). Following this period of differentiation the myotubes were tested with recombinant myostatin at 6 μg/mL or a combination of both myostatin and 300 recombinant protein at 30, 60, 90 or 120 μg/mL for further 24 hours to determine if 300 can rescue myostatin-mediated muscle wasting in vitro. Gene expression changes of intermediate signalling molecules critical in myostatin-mediated cachexia were analysed. Therefore, protein was isolated from cells and Western blot analysis was performed to measure protein expression levels for p-FoxO1, which we have shown to be a critical signalling intermediates in Myostatin-mediated cachexia (McFarlane et al 2006).

In the case of “recombinant myostatin: recombinant wild type myostatin (GDF-8), negative regulator of muscle growth, added to inhibit myoblasts [reference compound]”, the “decrease in the number of migrated myoblasts” value (primary myoblasts) is reported as “approximately 78%”, the “inhibition of myoblast proliferation” value (C2C12 myoblasts; after 48 hours) is reported as 25% and the “inhibition of myoblast proliferation” value (C2C12 myoblasts; after 72 hours) is reported as “about 10%”. The “p-FoxO1 expression (normalised to total FoxO1)” value (p-FoxO1) was “down-regulation”.
